# Assay results published in ChEMBL document CHEMBL1126635, “Mechanistic interpretation of the genotoxicity of nitrofurans (antibacterial agents) using quantitative structure-activity relationships and comparative molecular field analysis” (J Med Chem, 1993).
# How the values were obtained:
# Escherichia coli = test: Genotoxicity (SOSIP) on Escherichia coli PQ37 (SOS induction potential data, as a measure of genotoxicity); format: functional
# Salmonella typhimurium [1] = test: Mutagenicity in Salmonella Typhimurium TA98 was determined; format: functional, Salmonella enterica subsp. enterica serovar Typhimurium
# Salmonella typhimurium [2] = test: Mutagenicity in Salmonella Typhimurium TA100 was determined; format: functional, Salmonella enterica subsp. enterica serovar Typhimurium
# Salmonella typhimurium [3] = test: Mutagenicity inSalmonella Typhimurium TA98 was determined; format: functional, Salmonella enterica subsp. enterica serovar Typhimurium
# Salmonella typhimurium [4] = test: Mutagenicity inSalmonella Typhimurium TA100 was determined; format: functional, Salmonella enterica subsp. enterica serovar Typhimurium
SMILES,Log SOSIP (Escherichia coli),Log TA98 (Salmonella typhimurium [1]),Log TA100 (Salmonella typhimurium [2]),Log TA98 (Salmonella typhimurium [3]),Log TA100 (Salmonella typhimurium [4])
O=[N+]([O-])c1cc2cc3c(cc2o1)CCCC3,2.25,2.63,3.11,–,–
COc1cc2oc([N+](=O)[O-])cc2c2ccccc12,3.86,3.28,3.59,–,–
O=[N+]([O-])c1cc2cc3ccc4cccc5ccc(c2o1)c3c45,3.72,–,–,–,–
Cc1c([N+](=O)[O-])oc2cc3c(cc12)CCCC3,3.41,3.32,4.54,–,–
Cc1c([N+](=O)[O-])oc2c3c(ccc12)CCCC3,3.28,2.46,4.38,–,–
O=[N+]([O-])c1cc2c(ccc3cc4ccccc4cc32)o1,4.87,3.95,–,–,–
CCCCc1c([N+](=O)[O-])oc2ccc3ccccc3c12,4.28,–,–,–,–
COc1ccc2ccc3oc([N+](=O)[O-])cc3c2c1Br,4.46,–,–,–,–
CC(=O)Cc1c([N+](=O)[O-])oc2ccc3ccccc3c12,3.43,–,–,–,–
O=[N+]([O-])c1cc2c(cc3ccc4cccc5ccc2c3c45)o1,5,–,–,–,–
COC(=O)Cc1ccc2c(ccc3oc([N+](=O)[O-])cc32)c1,3.18,–,–,–,–
CCc1c([N+](=O)[O-])oc2ccc3ccccc3c12,4.32,4.18,–,–,–
CC(C)c1c([N+](=O)[O-])oc2ccc3ccccc3c12,3.74,–,–,–,–
COc1ccc2ccc3oc([N+](=O)[O-])cc3c2c1,4.25,4.75,5.58,–,–
CC(=O)c1ccc2c(ccc3oc([N+](=O)[O-])cc32)c1,3.72,–,–,–,–
O=[N+]([O-])c1cc2ccc3cc4ccccc4cc3c2o1,4.08,3.88,–,–,–
O=[N+]([O-])c1cc2cc3ccccc3c(Br)c2o1,3.04,3.31,2.67,–,–
COc1ccc2cc3c(ccc4oc([N+](=O)[O-])cc43)cc2c1,4.77,4.86,–,–,–
O=[N+]([O-])c1oc2ccc3ccccc3c2c1-c1ccccc1,4.43,–,–,–,–
COc1ccc2ccc3oc([N+](=O)[O-])cc3c2c1OC,4.2,–,–,–,–
Cc1c([N+](=O)[O-])oc2ccc3ccccc3c12,4.91,4.91,6.71,–,–
Cc1c([N+](=O)[O-])oc2ccc3cc(Br)ccc3c12,4.81,–,–,–,–
Cc1c([N+](=O)[O-])oc2ccccc12,1.2,–,3.7,–,–

SMILES,Log SOSIP (Escherichia coli),Log TA98 (Salmonella typhimurium [1]),Log TA100 (Salmonella typhimurium [2]),Log TA98 (Salmonella typhimurium [3]),Log TA100 (Salmonella typhimurium [4])
COc1ccc2oc(-c3ccc([N+](=O)[O-])o3)cc2c1,3.08,–,–,–,–
O=[N+]([O-])c1oc2ccc3ccccc3c2c1CCO,3.78,3.59,–,–,–
Cc1c([N+](=O)[O-])oc2ccc3c(c12)CCCC3,2.11,3.08,3.78,–,–
O=[N+]([O-])c1cc2c(ccc3ccccc32)o1,3.96,–,–,3.33,4.31
COc1ccc2c(ccc3oc([N+](=O)[O-])c(C)c32)c1,4.7,–,–,–,–
O=[N+]([O-])c1cc2c(ccc3cc(Br)ccc32)o1,4.64,3.61,4.16,–,–
CC(=O)Oc1ccc2c(ccc3oc([N+](=O)[O-])cc32)c1,3,–,–,–,–
COc1cccc2cc3cc([N+](=O)[O-])oc3cc12,2.96,3.44,3.07,–,–
Cc1c([N+](=O)[O-])oc2c1ccc1ccccc12,4.34,–,–,–,–
O=[N+]([O-])c1cc2c(ccc3cc(O)ccc32)o1,3.58,–,–,–,–
O=[N+]([O-])c1cc2ccc3c(c2o1)CCCC3,1.93,2.59,2.95,–,–
COc1ccc2oc([N+](=O)[O-])cc2c1,1.89,1.74,2.8,–,–
COc1ccc2c(C)c([N+](=O)[O-])oc2c1,2.28,–,3.54,–,–
O=[N+]([O-])c1cc2c3c(ccc2o1)CCCC3,2.08,2.11,2.81,–,–
Cc1ccc2c(ccc3oc([N+](=O)[O-])cc32)c1,3.95,–,–,–,–
Cc1c([N+](=O)[O-])oc2cc3ccccc3cc12,3.34,–,–,–,–
O=[N+]([O-])c1cc2ccccc2o1,1.53,1.3,1.54,–,–
COc1ccc2c(ccc3oc([N+](=O)[O-])cc32)c1Br,3.43,–,–,–,–
COc1cc2cc([N+](=O)[O-])oc2c2ccccc12,3.45,3.25,4.26,–,–
CCOC(=O)COc1ccc2c(ccc3oc([N+](=O)[O-])cc32)c1,3.18,–,–,–,–
COc1cc2ccccc2c2cc([N+](=O)[O-])oc12,4.04,4.2,4.66,–,–
COc1ccc2c(ccc3oc([N+](=O)[O-])cc32)c1,4.23,4.9,5.31,–,–
O=[N+]([O-])c1cc2cc(Cl)c3ccccc3c2o1,2.97,3.82,3.96,–,–
